The results in this text go back to ChEMBL document CHEMBL1143487, “Solid support synthesis of 6-aryl-2-substituted pyrimidin-4-yl phenols as anti-infective agents” (2005).

Each structure is given as a SMILES string. Values after ≈ are worked out from the molar mass of the structure shown. Active and inactive are the calls of the source. No cut-off for these calls is given here.

The subject of one test is Plasmodium falciparum. In words: Minimum inhibitory concentration against Plasmodium falciparum. Type of test: functional.
The subject of test [1] is Mycobacterium tuberculosis. In words: Minimum inhibitory concentration against Mycobacterium tuberculosis; - = inactive. The class given is functional, organism-based.
Test [2] concerns Mycobacterium tuberculosis. In words: Minimum inhibitory concentration against Mycobacterium tuberculosis. The class given is functional.

In the case of `COc1ccc(-c2cc(-c3ccc(O)cc3)nc(N3CCN(c4ccccc4)CC3)n2)cc1OC`, in the test on Plasmodium falciparum, the MIC (in general, the lowest concentration found to suppress growth) stood at 1 µg/mL (≈ 2.13 µM). Besides, in test [1], the MIC entry was “inactive”.
As to `COc1ccc(OC)c(-c2cc(-c3ccc(O)cc3)nc(N3CCN(C)CC3)n2)c1`, the MIC was 0.25 µg/mL (≈ 0.615 µM) in the test on Plasmodium falciparum and 12.5 µg/mL (≈ 30.8 µM) in test [2].
Turning to `COc1ccc(OC)c(-c2cc(-c3ccc(O)cc3)nc(N)n2)c1`, the MIC in the test on Plasmodium falciparum came to 10 µg/mL (≈ 30.9 µM); in test [2] it was 25 µg/mL (≈ 77.3 µM).
Turning to `Cc1ccc(-c2cc(-c3ccc(O)cc3)nc(N)n2)cc1`, the MIC in the test with Plasmodium falciparum came to 50 µg/mL (≈ 180 µM). For the same compound, the MIC result in test [1] was “inactive”.
`Oc1ccc(-c2cc(-c3ccccc3)nc(N3CCN(Cc4ccccc4)CC3)n2)cc1`: the MIC with Plasmodium falciparum amounted to 1 µg/mL (≈ 2.37 µM); in test [2], 25 µg/mL (≈ 59.2 µM).
With `COc1ccc(-c2cc(-c3ccc(O)cc3)nc(N3CCCC3)n2)cc1`, the lowest concentration to inhibit growth in the test with Plasmodium falciparum (MIC) was 1 µg/mL (≈ 2.88 µM). Moreover, the MIC result in test [1] is “inactive”.
Take `Oc1ccc(-c2cc(-c3ccccc3)nc(N3CCCC3)n2)cc1`: the MIC stood at 2 µg/mL (≈ 6.3 µM) with Plasmodium falciparum and 25 µg/mL (≈ 78.8 µM) in test [2].
In the same order, the values of `Oc1ccc(-c2cc(-c3ccccc3)nc(N3CCN(c4ccccc4)CC3)n2)cc1` are 10 µg/mL (≈ 24.5 µM) and 25 µg/mL (≈ 61.2 µM).
In the same order, the values of `COc1ccc(-c2cc(-c3ccc(O)cc3)nc(N)n2)cc1OC` are 10 µg/mL (≈ 30.9 µM) and 12.5 µg/mL (≈ 38.7 µM).
Take `COc1ccc(OC)c(-c2cc(-c3ccc(O)cc3)nc(N3CCN(c4ccccc4)CC3)n2)c1`: 2 µg/mL (≈ 4.27 µM) was the least that counted as inhibitory in the test with Plasmodium falciparum (MIC). The MIC entry in test [1] is “inactive”.
In the same order, the values of `COc1ccc(-c2cc(-c3ccc(O)cc3)nc(N3CCN(Cc4ccccc4)CC3)n2)cc1OC` are 0.5 µg/mL (≈ 1.04 µM) and “inactive”.
In the same order, the values of `COc1ccc(-c2cc(-c3ccc(O)cc3)nc(N)n2)cc1` are 50 µg/mL (≈ 170 µM) and “inactive”.
In the same order, the values of `Nc1nc(-c2ccccc2)cc(-c2ccc(O)cc2)n1` are 10 µg/mL (≈ 38 µM) and “inactive”.
Take `COc1ccc(OC)c(-c2cc(-c3ccc(O)cc3)nc(N3CCCC3)n2)c1`: the MIC was 1 µg/mL (≈ 2.65 µM) against Plasmodium falciparum and 25 µg/mL (≈ 66.2 µM) in test [2].
In the case of `COc1ccc(-c2cc(-c3ccc(O)cc3)nc(N3CCCC3)n2)cc1OC`, the MIC in the test on Plasmodium falciparum was 1 µg/mL (≈ 2.65 µM); in test [2], 25 µg/mL (≈ 66.2 µM).
On to `Cc1ccc(-c2cc(-c3ccc(O)cc3)nc(N3CCCCC3)n2)cc1`, for which inhibition of growth against Plasmodium falciparum (MIC) required 2 µg/mL (≈ 5.79 µM). Moreover, the MIC result in test [1] was “inactive”.
With `Cc1ccc(-c2cc(-c3ccc(O)cc3)nc(N3CCN(c4ccccc4)CC3)n2)cc1`, inhibition of growth against Plasmodium falciparum (MIC) required 10 µg/mL (≈ 23.7 µM). The MIC entry in test [1] was “inactive”.
For the compound `COc1ccc(-c2cc(-c3ccc(O)cc3)nc(N3CCN(c4ccccc4)CC3)n2)cc1`, in the test on Plasmodium falciparum, the MIC came out at 2 µg/mL (≈ 4.56 µM). The MIC result in test [1] was “inactive”.
For the compound `COc1ccc(-c2cc(-c3ccc(O)cc3)nc(N3CCCCC3)n2)cc1`, in the test with Plasmodium falciparum, 0.5 µg/mL (≈ 1.38 µM) was the least that counted as inhibitory (MIC). Besides, the MIC entry in test [1] was “inactive”.
`Cc1ccc(-c2cc(-c3ccc(O)cc3)nc(N3CCN(Cc4ccccc4)CC3)n2)cc1` showed an MIC against Plasmodium falciparum of 2 µg/mL (≈ 4.58 µM). Besides, the MIC result in test [1] was “inactive”.
For `COc1ccc(OC)c(-c2cc(-c3ccc(O)cc3)nc(N3CCCCC3)n2)c1`, the MIC in the test on Plasmodium falciparum was 1 µg/mL (≈ 2.55 µM); in test [2], 25 µg/mL (≈ 63.9 µM).
With `COc1ccc(-c2cc(-c3ccc(O)cc3)nc(N3CCN(Cc4ccccc4)CC3)n2)cc1`, the lowest concentration to inhibit growth against Plasmodium falciparum (MIC) was 1 µg/mL (≈ 2.21 µM). Also, in test [1], the MIC result is “inactive”.
For `Cc1ccc(-c2cc(-c3ccc(O)cc3)nc(N3CCN(C)CC3)n2)cc1`, the MIC came to 1 µg/mL (≈ 2.77 µM) against Plasmodium falciparum and 25 µg/mL (≈ 69.4 µM) in test [2].
In the same order, the values of `CN1CCN(c2nc(-c3ccccc3)cc(-c3ccc(O)cc3)n2)CC1` are 0.5 µg/mL (≈ 1.44 µM) and 25 µg/mL (≈ 72.2 µM).
`Cc1ccc(-c2cc(-c3ccc(O)cc3)nc(N3CCCC3)n2)cc1` returned an MIC with Plasmodium falciparum of 2 µg/mL (≈ 6.03 µM). For the same compound, the MIC result in test [1] was “inactive”.
`COc1ccc(-c2cc(-c3ccc(O)cc3)nc(N3CCN(C)CC3)n2)cc1OC`: the MIC in the test on Plasmodium falciparum came to 0.25 µg/mL (≈ 0.615 µM); in test [2] it was 12.5 µg/mL (≈ 30.8 µM).
In the same order, the values of `COc1ccc(-c2cc(-c3ccc(O)cc3)nc(N3CCCCC3)n2)cc1OC` are 1 µg/mL (≈ 2.55 µM) and 25 µg/mL (≈ 63.9 µM).
In the same order, the values of `Oc1ccc(-c2cc(-c3ccccc3)nc(N3CCCCC3)n2)cc1` are 2 µg/mL (≈ 6.03 µM) and 25 µg/mL (≈ 75.4 µM).
In the same order, the values of `COc1ccc(-c2cc(-c3ccc(O)cc3)nc(N3CCN(C)CC3)n2)cc1` are 0.5 µg/mL (≈ 1.33 µM) and 25 µg/mL (≈ 66.4 µM).
`COc1ccc(OC)c(-c2cc(-c3ccc(O)cc3)nc(N3CCN(Cc4ccccc4)CC3)n2)c1`: the values for the MIC (in the test on Plasmodium falciparum; in test [2]) were 0.25 µg/mL (≈ 0.518 µM) and 25 µg/mL (≈ 51.8 µM), respectively.
